{"source": "patent US20150313892A1", "about": "“PHARMACEUTICAL COMPOSITIONS FOR TREATING PAIN ASSOCIATED WITH DYSMENORRHEA” (priority 2014, published 2015)", "key": {"[1]": {"target": "κ-opioid (Homo sapiens, UniProt P41145)", "sequence (P41145 whole entry)": "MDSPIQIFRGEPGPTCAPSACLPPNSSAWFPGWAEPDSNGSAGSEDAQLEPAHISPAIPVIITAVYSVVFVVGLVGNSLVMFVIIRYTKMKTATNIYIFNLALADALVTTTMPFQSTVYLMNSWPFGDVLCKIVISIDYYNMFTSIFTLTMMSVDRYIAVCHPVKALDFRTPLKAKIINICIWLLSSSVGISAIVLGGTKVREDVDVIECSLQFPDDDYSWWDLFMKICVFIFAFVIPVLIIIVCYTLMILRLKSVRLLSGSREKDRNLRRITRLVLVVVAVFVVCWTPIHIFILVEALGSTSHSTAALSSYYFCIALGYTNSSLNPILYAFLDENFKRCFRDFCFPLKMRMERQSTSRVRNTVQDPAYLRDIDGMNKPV", "conditions": "read-out: Binding Constant Ki, κ-opioid; cited from earlier work"}, "[2]": {"conditions": "in vivo, po; cited from earlier work"}, "[3]": {"test_system": "patients with diabetic neuropathy and fibromyalgia", "test": "Pain relief in diabetic neuropathy and fibromyalgia patients", "conditions": "400 mg per day, alone"}, "[4]": {"target": "NE reuptake (Homo sapiens, UniProt P23975)", "sequence (P23975 whole entry)": "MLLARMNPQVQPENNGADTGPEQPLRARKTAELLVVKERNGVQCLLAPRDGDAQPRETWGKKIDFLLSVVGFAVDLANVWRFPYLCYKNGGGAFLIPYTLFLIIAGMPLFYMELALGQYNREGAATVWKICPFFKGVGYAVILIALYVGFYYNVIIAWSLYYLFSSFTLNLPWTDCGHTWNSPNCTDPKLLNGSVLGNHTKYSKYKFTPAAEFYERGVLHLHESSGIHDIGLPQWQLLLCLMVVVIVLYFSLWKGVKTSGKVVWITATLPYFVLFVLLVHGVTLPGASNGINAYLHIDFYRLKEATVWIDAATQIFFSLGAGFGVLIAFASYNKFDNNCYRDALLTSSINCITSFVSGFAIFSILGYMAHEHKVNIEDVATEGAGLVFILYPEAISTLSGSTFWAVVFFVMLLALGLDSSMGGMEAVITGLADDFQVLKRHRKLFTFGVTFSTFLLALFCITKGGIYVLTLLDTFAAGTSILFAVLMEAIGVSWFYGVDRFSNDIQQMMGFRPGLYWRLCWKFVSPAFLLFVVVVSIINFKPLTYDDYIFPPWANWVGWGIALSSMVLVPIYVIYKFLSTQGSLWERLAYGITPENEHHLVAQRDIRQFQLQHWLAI"}, "[5]": {"target": "δ-opioid (Homo sapiens, UniProt P41143)", "sequence (P41143 whole entry)": "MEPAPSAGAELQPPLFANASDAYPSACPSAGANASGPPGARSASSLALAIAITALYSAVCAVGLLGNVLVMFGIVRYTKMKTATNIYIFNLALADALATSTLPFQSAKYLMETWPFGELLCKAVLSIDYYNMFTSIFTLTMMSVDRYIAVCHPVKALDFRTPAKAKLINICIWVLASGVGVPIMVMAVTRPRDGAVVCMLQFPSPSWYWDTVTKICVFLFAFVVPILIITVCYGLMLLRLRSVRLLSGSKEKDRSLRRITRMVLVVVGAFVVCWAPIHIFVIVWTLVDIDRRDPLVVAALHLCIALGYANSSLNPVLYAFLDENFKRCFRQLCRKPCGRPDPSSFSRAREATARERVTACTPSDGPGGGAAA", "conditions": "read-out: Binding Constant Ki, δ-opioid; cited from earlier work"}, "[6]": {"test_system": "chronic sciatic nerve constriction injury", "conditions": "chronic sciatic nerve constriction injury in rats; cited from earlier work"}, "[7]": {"target": "μ-opioid (Homo sapiens, UniProt P35372)", "sequence (P35372 whole entry)": "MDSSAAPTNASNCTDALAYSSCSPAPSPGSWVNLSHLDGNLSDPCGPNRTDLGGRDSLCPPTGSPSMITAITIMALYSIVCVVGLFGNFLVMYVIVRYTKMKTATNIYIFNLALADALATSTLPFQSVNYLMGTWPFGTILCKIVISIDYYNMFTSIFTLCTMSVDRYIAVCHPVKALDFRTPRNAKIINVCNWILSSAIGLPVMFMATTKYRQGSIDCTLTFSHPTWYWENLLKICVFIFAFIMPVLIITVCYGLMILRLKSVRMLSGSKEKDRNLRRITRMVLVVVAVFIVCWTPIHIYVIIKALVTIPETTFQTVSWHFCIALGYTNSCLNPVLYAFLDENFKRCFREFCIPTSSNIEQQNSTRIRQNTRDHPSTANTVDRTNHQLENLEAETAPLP", "conditions": "read-out: Binding Constant Ki, μ-opioid; cited from earlier work"}, "[8]": {"target": "NMDA", "conditions": "cited from earlier work"}, "[9]": {"target": "Sigma", "conditions": "read-out: Binding Constant Ki, Sigma; cited from earlier work"}, "[10]": {"target": "5-HT reuptake (Homo sapiens, UniProt P31645)", "sequence (P31645 whole entry)": "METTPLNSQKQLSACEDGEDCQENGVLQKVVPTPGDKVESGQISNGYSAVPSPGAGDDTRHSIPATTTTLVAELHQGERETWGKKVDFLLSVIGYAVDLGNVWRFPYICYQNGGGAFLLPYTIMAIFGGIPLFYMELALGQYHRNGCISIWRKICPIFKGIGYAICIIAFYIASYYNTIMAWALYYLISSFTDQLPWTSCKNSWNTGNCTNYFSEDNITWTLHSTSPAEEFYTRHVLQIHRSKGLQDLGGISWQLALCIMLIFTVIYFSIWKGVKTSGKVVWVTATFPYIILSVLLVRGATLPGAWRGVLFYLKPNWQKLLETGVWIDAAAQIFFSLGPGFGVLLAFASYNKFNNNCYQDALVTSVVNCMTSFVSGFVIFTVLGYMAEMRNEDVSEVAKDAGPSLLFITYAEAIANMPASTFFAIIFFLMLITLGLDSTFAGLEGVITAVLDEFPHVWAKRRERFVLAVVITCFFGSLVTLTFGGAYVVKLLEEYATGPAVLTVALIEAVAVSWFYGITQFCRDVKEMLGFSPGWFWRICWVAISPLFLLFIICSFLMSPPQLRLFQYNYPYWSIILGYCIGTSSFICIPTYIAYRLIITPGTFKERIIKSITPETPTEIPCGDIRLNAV", "conditions": "read-out: Binding Constant Ki, 5-HT, cited from earlier work"}, "[11]": {"target": "α2δ", "conditions": "read-out: α2δ Binding; cited from earlier work"}, "[12]": {"conditions": "cited from earlier work"}, "[13]": {"test_system": "cellular uptake of dopamine, noradrenaline, or serotonin", "conditions": "cited from earlier work"}, "[14]": {"test_system": "uptake of norepinephrine (NE), serotonin (5-HT) and dopamine", "conditions": "cited from earlier work"}, "[15]": {"test_system": "α or β adrenergic, muscarinic, histaminergic, and dopaminergic receptors", "conditions": "cited from earlier work"}, "[16]": {"test_system": "patients with postherpetic neuralgia or painful diabetic neuropathy", "conditions": "oral, cited from earlier work"}, "[17]": {"test_system": "transient K^+ channels in hippocampal neurons", "conditions": "read-out: IC50, inhibition of transient K+ channels; cited from earlier work"}, "[18]": {"test_system": "postoperative patients", "conditions": "intravenous; 30-mg/kg bolus, 10 mg/kg/h infusion for 48 hours; cited from earlier work"}, "[19]": {"test_system": "patients with neuropathic pain associated with diabetic peripheral neuropathy", "conditions": "diabetic peripheral neuropathy trials; cited from earlier work"}, "[20]": {"test_system": "patients, pain score", "conditions": "cited from earlier work"}, "[21]": {"test_system": "patients with fibromyalgia", "conditions": "fibromyalgia trials, cited from earlier work"}, "[22]": {"test_system": "persons undergoing third molar surgery", "conditions": "cited from earlier work"}, "[23]": {"conditions": "reuptake inhibition; read-out: Binding Constant Ki, NE; cited from earlier work"}, "[24]": {"conditions": "read-out: Binding Constant Ki, NMDA"}, "[25]": {"conditions": "read-out: Binding Constant Ki, NE; reuptake inhibition; cited from earlier work"}}, "note": "Read-outs that look alike come from different tables or passages of the source."}
{"compound": "COc1cccc(C2(O)CCCCC2CN(C)C)c1", "note": "(racemic) [(±) Tramadol, (+/−)-trans(RR,SS)-2-[(di-methylamino)methyl]-1-(3-methoxyphenyl)cyclohexanol]", "values": [{"measurement": "Ki", "setting": "[1]", "value": 42.7, "unit": "µM"}, {"measurement": "duration of the analgesic effect", "setting": "[2]", "value": "about 6 hours"}, {"measurement": "reduction in pain", "setting": "[3]", "value": "30-40%"}, {"measurement": "Ki", "setting": "[4]; [23]", "value": 0.785, "unit": "µM"}, {"measurement": "Ki", "setting": "[5]", "value": 57.7, "unit": "µM"}]}
{"compound": "COc1ccc(C(CN(C)C)C2(O)CCCCC2)cc1", "note": "(racemic) [Venlafaxine, (R/S)-1-[2-(dimethylamino)-1-(4-methoxyphenyl)ethyl]cyclohexanol]", "values": [{"measurement": "reversing chronic neuropathic pain secondary to thermal hyperalgesia; hyperalgesia of neuropathic pain", "setting": "[6]", "value": "effective"}]}
{"compound": "COc1ccc2c(c1)[C@@]13CCCC[C@H]1[C@@H](C2)N(C)CC3", "note": "[Dextromethorphan, (+)-3-methoxy-N-methylmorphinan]", "values": [{"measurement": "Ki", "setting": "[7]", "value": 1.28, "unit": "µM"}, {"measurement": "Ki", "setting": "[8]; [24]", "value": 2.91, "unit": "µM"}, {"measurement": "Ki", "setting": "[9]", "value": 0.365, "unit": "µM"}, {"measurement": "Ki", "setting": "[5]", "value": 11.5, "unit": "µM"}]}
{"compound": "CN1CC[C@@]23CCCC[C@@H]2[C@@H]1Cc1ccc(O)cc13", "note": "[Dextrorphan]", "values": [{"measurement": "Ki", "setting": "[1]", "value": 5.95, "unit": "µM"}, {"measurement": "Ki", "setting": "[10]; reuptake inhibition", "value": 0.401, "unit": "µM"}, {"measurement": "Ki", "setting": "[4]; [25]", "value": 0.34, "unit": "µM"}, {"measurement": "Ki", "setting": "[5]", "value": 34.7, "unit": "µM"}]}
{"compound": "NCC1(CC(=O)O)CCCCC1", "note": "[Gabapentin]", "values": [{"measurement": "Ki", "setting": "[11]", "value": 0.059, "unit": "µM"}, {"measurement": "Bioavailability", "setting": "[12]; 900 mg/day given in 3 divided doses", "value": "approximately 60%"}, {"measurement": "Bioavailability", "setting": "[12]; 1200 mg/day given in 3 divided doses", "value": "~47", "unit": "%"}, {"measurement": "Bioavailability", "setting": "[12]; 2400 mg/day given in 3 divided doses", "value": "~34", "unit": "%"}, {"measurement": "Bioavailability", "setting": "[12]; 3600 mg/day given in 3 divided doses", "value": "~33", "unit": "%"}, {"measurement": "Bioavailability", "setting": "[12]; 4800 mg/day given in 3 divided doses", "value": "~27", "unit": "%"}, {"measurement": "apparent volume of distribution", "setting": "[12]; after 150 mg intravenous administration, Mean±SD", "value": "58 ± 6", "unit": "L"}, {"measurement": "increase in AUC and Cmax with food", "setting": "[12]; food effect", "value": 14, "unit": "%"}, {"measurement": "bound to plasma protein", "setting": "[12]; in vivo", "value": "Less than 3%"}, {"measurement": "metabolism in humans", "setting": "[12]; in vivo", "value": "not appreciably metabolized"}, {"measurement": "steady-state predose (Cmin) concentration in cerebrospinal fluid, of corresponding plasma concentration", "setting": "[12]; patients with epilepsy", "value": "approximately 20%"}, {"measurement": "elimination half-life", "setting": "[12]; unaltered by dose or multiple dosing", "value": "5 to 7", "unit": "h"}, {"measurement": "cellular uptake of dopamine, noradrenaline, or serotonin", "setting": "[13]", "value": "did not alter"}]}
{"compound": "CN1CC[C@]23CCCC[C@H]2[C@H]1Cc1ccc(O)cc13", "note": "[Levorphanol]", "values": [{"measurement": "Ki", "setting": "[1]", "value": 0.0042, "unit": "µM"}, {"measurement": "Ki", "setting": "[10]", "value": 0.0863, "unit": "µM"}, {"measurement": "Ki", "setting": "[4]; [25]", "value": 1.21, "unit": "µM"}, {"measurement": "Ki", "setting": "[5]", "value": 0.00361, "unit": "µM"}]}
{"compound": "CCN(CC)C(=O)C1(c2ccccc2)CC1CN", "note": "(centres unmarked) [Milnacipran]", "values": [{"measurement": "uptake of dopamine", "setting": "[14]", "value": "does not affect"}, {"measurement": "Ki", "setting": "[8]; [24]", "value": 6.3, "unit": "µM"}, {"measurement": "affinity for α or β adrenergic, muscarinic, histaminergic, and dopaminergic receptors", "setting": "[15]", "value": "no affinity"}]}
{"compound": "CN(C)CCC=C1c2ccccc2CCc2ccccc21", "note": "[amitriptyline]", "values": [{"measurement": "patients with good or moderate response", "setting": "[16]; painful diabetic neuropathy", "value": "three-quarters"}, {"measurement": "patients with good or moderate response", "setting": "[16]; postherpetic neuralgia", "value": "about two-thirds"}]}
{"compound": "CN(C)CCCN1c2ccccc2CCc2ccccc21", "note": "[imipramine]", "values": [{"measurement": "IC50", "setting": "[17]", "value": "~6", "unit": "µM"}]}
{"compound": "[Mg]", "note": "[magnesium]", "values": [{"measurement": "use of narcotics in postoperative patients", "setting": "[18]", "value": "reduced the use of narcotics"}]}
{"compound": "CC(C)C[C@H](CN)CC(=O)O", "note": "[pregabalin]", "values": [{"measurement": "discontinuation due to dizziness", "setting": "[19]", "value": 3, "unit": "%"}, {"measurement": "discontinuation due to somnolence", "setting": "[19]", "value": 2, "unit": "%"}, {"measurement": "patients discontinued prematurely due to adverse reactions", "setting": "[19]", "value": 9, "unit": "%"}, {"measurement": "withdrawal due to asthenia, confusion, and peripheral edema, each", "setting": "[19]", "value": "approximately 1%"}, {"measurement": "endpoint mean pain score (proportion with at least 50% reduction in pain score increased)", "setting": "[20]; 8-week study, 50 and 100 mg three times a day vs placebo", "value": "statistically significantly improved"}, {"measurement": "endpoint mean pain score (proportion with at least 50% reduction in pain score increased)", "setting": "[20]; 8-week study, 100 or 200 mg three times a day vs placebo, by creatinine clearance", "value": "statistically significantly improved"}, {"measurement": "endpoint mean pain score (proportion with at least 50% reduction in pain score increased)", "setting": "[20]; 13-week study, 75, 150, 300 mg twice daily vs placebo, creatinine clearance greater than 60 mL/min, all doses", "value": "statistically significantly improved"}, {"measurement": "endpoint mean pain score (proportion with at least 50% reduction in pain score increased)", "setting": "[20]; 100 and 200 mg three times a day", "value": "statistically significantly improved"}, {"measurement": "patients discontinued prematurely due to adverse reactions", "setting": "[21]; 150-600 mg/day", "value": 19, "unit": "%"}, {"measurement": "discontinuation due to dizziness", "setting": "[21]", "value": 6, "unit": "%"}, {"measurement": "discontinuation due to somnolence", "setting": "[21]", "value": 3, "unit": "%"}, {"measurement": "withdrawal due to fatigue, headache, balance disorder, and weight increased, each", "setting": "[21]", "value": "approximately 1%"}]}
{"compound": "N[C@@H](Cc1c[nH]c2ccccc12)C(=O)O", "note": "[tryptophan]", "values": [{"measurement": "effect on post-operative pain or on the consumption of other analgesics", "setting": "[22]", "value": "no effect"}]}
{"compound": "O-desmethyltramadol [(±) M1]", "values": [{"measurement": "Ki", "setting": "[1]", "value": 0.242, "unit": "µM"}, {"measurement": "Ki", "setting": "[8]; [24]", "value": "> 16", "unit": "µM"}, {"measurement": "Ki", "setting": "[4]; [23]", "value": 1.52, "unit": "µM"}]}
